Measurements published in patent publication US20050244414A1, “Method to ameliorate osteolysis and metastasis” (XENOTECH INCORPORATED, priority 1995, published 2005).

B1: PTH: parathyroid hormone, bone resorption stimulating factor added to culture medium (protein, UniProt P01270 32-115, looked up)
Parathyroid hormone: SVSEIQLMHNLGKHLNSMERVEWLRKKLQDVHNFVALGAPLAPRDAGSQRPRKKEDNVLVESHEKSLGEADKADVNVLTKAKSQ
modifications: Parathyroid hormone
notes: parathyroid hormone, bone resorption stimulating factor added to culture medium

Columns and labels:
bone resorption = settings: cited from earlier work
fetal rat long bone = assay: Bone resorption measured as 45Ca release in organ culture; format: cell-based; settings: stimulating factor alone at 10 ng/ml, 120 hours; untreated bones roughly 20%
Description: In this example, the percentage of labeled calcium (^45Ca) from fetal rat long bone was used as a measure of bone resorption. To label the bones, pregnant female rats at the 18th day of gestation were injected subcutaneously with 50 μCi of labeled calcium salt. The embryos were harvested the next day, at 19 days gestation, and long bones were obtained from the fetuses. The bones were cultured in standard media for 120 hours in the presence or absence of various putative bone resorption stimulation factors and in the presence and absence of the anti-PTH-rp (1-34) antibody used in Preparation A. The results are shown in FIG. 2.

| Molecule | potency relative to etidronate, ability to inhibit bone resorption (bone resorption) | release of labeled calcium (45Ca) into the medium (fetal rat long bone) [%] |
| --- | --- | --- |
| NCCC(O)(P(=O)(O)O)P(=O)(O)O [pamidronate] | approximately 100 times |  |
| parathyroid hormone-related protein [PTH-rp] |  | ~90 |
| B1 |  | ~90 |
